# Reference: patent publication US9114067B2, “Local administration of gallium compositions to treat pain” (priority 2006, dated 2015)
# Like-named read-outs stand apart in the source and are kept apart here.
# How the values were obtained:
# [1] = test system: non-malignant neuropathic pain; details: cited from earlier work
# postherpetic neuralgia [2] = assay: Case report: gallium maltolate cream to treat postherpetic neuralgia (person); assay type: in vivo, human; details: tried over about three years before gallium treatment
# Protocol: A person had been experiencing postherpetic neuralgia with erythema on the left side of their face for approximately three years. The pain was so severe that it interfered with sleep and other daily activities. During that period they had tried numerous systemic analgesics to relieve the pain, including amitriptyline 25 mg BID, methadone 5 mg BID, carbamazepine 100 mg BID, gabapentin 200 mg QD, oxycodone 20 mg BID, naproxen, acetaminophen, and intravenous hydrogen peroxide. […] They then began treatment using the topical gallium maltolate formulation of Example 1, above. This formulation was applied three times per day to the affected area, at about 8 AM, 1 PM, and 9 PM, every day for four weeks. The formulation was administered by dipping a fingertip lightly into the formulation, and then smearing the formulation from the fingertip onto the affected area.
# vaginal inflammation = assay: Case report: gallium maltolate cream to treat pain and itching associated with vaginal inflammation (person); assay type: in vivo, human; details: for effect of earlier topical treatment on vaginal inflammation symptoms: same patient before gallium treatment
# postherpetic neuralgia [3] = details: cited from earlier work
# [4] = test system: painful diabetic neuropathy; details: Wiffen et al. 2005; cited from earlier work
# [5] = test system: peripheral neuropathic pain; details: cited from earlier work
# [6] = meta-analysis, Eisenberg et al. 2005
smiles,measurement,setting,value
CN1CC[C@]23c4c5ccc(O)c4O[C@H]2[C@@H](O)C=C[C@H]3[C@H]1C5 [morphine],efficacy in intermediate-term (8-56 day) studies,[1]; in vivo,marginal efficacy
same,efficacy in short-term (24 hour) studies,[1]; in vivo,marginal to no efficacy
COc1ccc2cc([C@H](C)C(=O)O)ccc2c1 [naproxen],pain relief from earlier treatments tried by the same patient,postherpetic neuralgia [2],None of these treatments produced significant pain relief
Clc1ccc(COC(Cn2ccnc2)c2ccc(Cl)cc2Cl)c(Cl)c1 (stereo not shown) [miconazole],local tolerability of earlier topical treatment,vaginal inflammation; same patient,irritating
same,effect of earlier topical treatment on vaginal inflammation symptoms,vaginal inflammation,ineffective
CCC(=O)C(CC(C)N(C)C)(c1ccccc1)c1ccccc1 (stereo not shown) [methadone],pain relief from earlier treatments tried by the same patient,postherpetic neuralgia [2],None of these treatments produced significant pain relief
same,efficacy in intermediate-term (8-56 day) studies,[1]; [6],marginal efficacy
same,efficacy in short-term (24 hour) studies,[1]; [6],marginal to no efficacy
COc1ccc2c3c1O[C@H]1C(=O)CC[C@@]4(O)[C@@H](C2)N(C)CC[C@]314 [oxycodone],pain relief from earlier treatments tried by the same patient,postherpetic neuralgia [2],None of these treatments produced significant pain relief
same,efficacy in intermediate-term (8-56 day) studies,[1]; [6],marginal efficacy
same,efficacy in short-term (24 hour) studies,[1]; [6],marginal to no efficacy
CN1CC[C@]23CCCC[C@H]2[C@H]1Cc1ccc(O)cc13 [levorphanol],subjects who dropped out of the study due to drug side effects,postherpetic neuralgia [3]; Rowbotham et al. 2003,31%
same,average reduction in pain,"postherpetic neuralgia [3]; high dose, Rowbotham et al. 2003",33%
same,average reduction in pain,"postherpetic neuralgia [3]; low dose, Rowbotham et al. 2003",14%
same,efficacy in intermediate-term (8-56 day) studies,[1]; [6],marginal efficacy
same,efficacy in short-term (24 hour) studies,[1]; [6],marginal to no efficacy
NCC1(CC(=O)O)CCCCC1 [gabapentin],pain relief from earlier treatments tried by the same patient,postherpetic neuralgia [2],None of these treatments produced significant pain relief
same,NNT for moderate pain relief,"postherpetic neuralgia [3]; postherpetic neuralgia, Wiffen et al. 2005",3.2
same,NNT for moderate pain relief,[4],3.8
NC(=O)N1c2ccccc2C=Cc2ccccc21 [carbamazepine],pain relief from earlier treatments tried by the same patient,postherpetic neuralgia [2],None of these treatments produced significant pain relief
same,NNT for moderate pain relief,[4],2.3
CN(C)CCC=C1c2ccccc2CCc2ccccc21 [amitriptyline],pain relief from earlier treatments tried by the same patient,postherpetic neuralgia [2],None of these treatments produced significant pain relief
same,NNT (number needed to treat) for moderate pain relief,[5]; Saarto and Wiffen 2005,2
same,share of those treated with at least moderate pain relief,[5]; explanation of NNT 2,50%
O=C1NC(=O)C(c2ccccc2)(c2ccccc2)N1 [phenytoin],NNT for moderate pain relief,[4],2.1
CCOC(=O)c1ccc(N)cc1 [benzocaine],effect of earlier topical treatment on vaginal inflammation symptoms,vaginal inflammation,little effect
OO [hydrogen peroxide],pain relief from earlier treatments tried by the same patient,postherpetic neuralgia [2],None of these treatments produced significant pain relief
CC(=O)Nc1ccc(O)cc1 [acetaminophen],pain relief from earlier treatments tried by the same patient,postherpetic neuralgia [2],None of these treatments produced significant pain relief
